From the NIST ThermoML archive (doi:10.1016/j.fluid.2014.04.002)
Numbers after ± are expanded uncertainties.

Assay: xn = mol fraction of the nth substance listed
Settings: 101 kPa, Liquid; for viscosity: Concentric cylinders viscometry; for mass density: Vibrating tube method

## CCOC(=O)C(C)O (stereo not drawn) [DL-ethyl lactate] + OCCCO
308.15 K, x1 = 0.1001
  viscosity: 20.61 ± 0.4 mPa·s
  mass density: 1042.68 ± 0.93 kg/m3
308.15 K, x1 = 0.2001
  viscosity: 15.81 ± 0.3 mPa·s
  mass density: 1041.16 ± 0.92 kg/m3
308.15 K, x1 = 0.3
  viscosity: 11.84 ± 0.23 mPa·s
  mass density: 1039.07 ± 0.92 kg/m3
308.15 K, x1 = 0.3998
  viscosity: 8.791 ± 0.17 mPa·s
  mass density: 1036.66 ± 0.91 kg/m3
308.15 K, x1 = 0.4996
  viscosity: 6.65 ± 0.13 mPa·s
  mass density: 1034.3 ± 0.91 kg/m3
308.15 K, x1 = 0.5997
  viscosity: 5.009 ± 0.096 mPa·s
  mass density: 1031.42 ± 0.9 kg/m3
308.15 K, x1 = 0.7
  viscosity: 3.833 ± 0.074 mPa·s
  mass density: 1028.37 ± 0.9 kg/m3
308.15 K, x1 = 0.8
  viscosity: 2.944 ± 0.057 mPa·s
  mass density: 1024.96 ± 0.89 kg/m3
308.15 K, x1 = 0.8997
  viscosity: 2.329 ± 0.045 mPa·s
  mass density: 1021.54 ± 0.88 kg/m3
308.15 K, x1 = 1
  viscosity: 1.858 ± 0.036 mPa·s
  mass density: 1017.42 ± 0.87 kg/m3
313.15 K, x1 = 0.1001
  viscosity: 16.9 ± 0.32 mPa·s
  mass density: 1039.25 ± 0.92 kg/m3
313.15 K, x1 = 0.2001
  viscosity: 13.04 ± 0.25 mPa·s
  mass density: 1037.46 ± 0.91 kg/m3
313.15 K, x1 = 0.3
  viscosity: 9.826 ± 0.19 mPa·s
  mass density: 1035.13 ± 0.91 kg/m3
313.15 K, x1 = 0.3998
  viscosity: 7.365 ± 0.14 mPa·s
  mass density: 1032.52 ± 0.9 kg/m3
313.15 K, x1 = 0.4996
  viscosity: 5.624 ± 0.11 mPa·s
  mass density: 1029.86 ± 0.9 kg/m3
313.15 K, x1 = 0.5997
  viscosity: 4.28 ± 0.082 mPa·s
  mass density: 1026.75 ± 0.89 kg/m3
313.15 K, x1 = 0.7
  viscosity: 3.308 ± 0.064 mPa·s
  mass density: 1023.48 ± 0.89 kg/m3
313.15 K, x1 = 0.8
  viscosity: 2.57 ± 0.05 mPa·s
  mass density: 1019.84 ± 0.88 kg/m3
313.15 K, x1 = 0.8997
  viscosity: 2.056 ± 0.04 mPa·s
  mass density: 1016.22 ± 0.87 kg/m3
313.15 K, x1 = 1
  viscosity: 1.658 ± 0.032 mPa·s
  mass density: 1011.9 ± 0.86 kg/m3
318.15 K, x1 = 0.1001
  viscosity: 14 ± 0.27 mPa·s
  mass density: 1035.8 ± 0.91 kg/m3
318.15 K, x1 = 0.2001
  viscosity: 10.86 ± 0.21 mPa·s
  mass density: 1033.74 ± 0.91 kg/m3
318.15 K, x1 = 0.3
  viscosity: 8.236 ± 0.16 mPa·s
  mass density: 1031.16 ± 0.9 kg/m3
318.15 K, x1 = 0.3998
  viscosity: 6.232 ± 0.12 mPa·s
  mass density: 1028.33 ± 0.9 kg/m3
318.15 K, x1 = 0.4996
  viscosity: 4.805 ± 0.092 mPa·s
  mass density: 1025.39 ± 0.89 kg/m3
318.15 K, x1 = 0.5997
  viscosity: 3.691 ± 0.071 mPa·s
  mass density: 1022.05 ± 0.88 kg/m3
318.15 K, x1 = 0.7
  viscosity: 2.883 ± 0.056 mPa·s
  mass density: 1018.55 ± 0.88 kg/m3
318.15 K, x1 = 0.8
  viscosity: 2.263 ± 0.044 mPa·s
  mass density: 1014.69 ± 0.87 kg/m3
318.15 K, x1 = 0.8997
  viscosity: 1.83 ± 0.036 mPa·s
  mass density: 1010.87 ± 0.86 kg/m3
318.15 K, x1 = 1
  viscosity: 1.491 ± 0.029 mPa·s
  mass density: 1006.36 ± 0.85 kg/m3
323.15 K, x1 = 0.1001
  viscosity: 11.78 ± 0.23 mPa·s
  mass density: 1032.33 ± 0.9 kg/m3
323.15 K, x1 = 0.2001
  viscosity: 9.189 ± 0.18 mPa·s
  mass density: 1030 ± 0.9 kg/m3
323.15 K, x1 = 0.3
  viscosity: 7.027 ± 0.13 mPa·s
  mass density: 1027.16 ± 0.89 kg/m3
323.15 K, x1 = 0.3998
  viscosity: 5.361 ± 0.1 mPa·s
  mass density: 1024.09 ± 0.89 kg/m3
323.15 K, x1 = 0.4996
  viscosity: 4.174 ± 0.08 mPa·s
  mass density: 1020.89 ± 0.88 kg/m3
323.15 K, x1 = 0.5997
  viscosity: 3.235 ± 0.062 mPa·s
  mass density: 1017.32 ± 0.87 kg/m3
323.15 K, x1 = 0.7
  viscosity: 2.551 ± 0.049 mPa·s
  mass density: 1013.6 ± 0.86 kg/m3
323.15 K, x1 = 0.8
  viscosity: 2.023 ± 0.039 mPa·s
  mass density: 1009.51 ± 0.86 kg/m3
323.15 K, x1 = 0.8997
  viscosity: 1.648 ± 0.032 mPa·s
  mass density: 1005.5 ± 0.85 kg/m3
323.15 K, x1 = 1
  viscosity: 1.349 ± 0.026 mPa·s
  mass density: 1000.79 ± 0.84 kg/m3
